# Results: doi:10.1101/2022.07.25.501355v1, “Building artificial plant cell wall on lipid bilayer by assembling polysaccharides and engineered proteins” (biorxiv, 2022)
# Key:
# [1] = target: T1, diCBM77Rf (Ruminococcus flavefaciens, UniProt A0A1A9TA81); test: isothermal titration calorimetry; format: binding; conditions: 25 °C; 20 mM Tris pH 7.5, 100 mM NaCl (ligand in 20 mM Tris pH 7.5); N fixed at 2 in the fit; no full sigmoid; ligand mainly DP7 with some DP8
# T1 construct: CBM77 domain only; N-terminal His-tag cut by TEV; E. coli BL21(DE3)
# T1 sequence (A0A1A9TA81 2-115): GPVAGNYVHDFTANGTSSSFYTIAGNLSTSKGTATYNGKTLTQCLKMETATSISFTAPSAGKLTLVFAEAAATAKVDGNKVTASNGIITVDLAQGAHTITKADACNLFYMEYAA
# Excerpt: isothermal titration calorimetry on diCBM77Rf
# [2] = target: Janus lectin RSL-CBM77Rf; format: binding, Ralstonia nicotianae / Ruminococcus flavefaciens; conditions: 25 °C; 20 mM Tris pH 7.5, 100 mM NaCl (ligand in 20 mM Tris pH 7.5); site on CBM77Rf part; ligand mainly DP7 with some DP8
structure (smiles),measurement,setting,value
O=C(O)[C@H]1O[C@H](O[C@@H]2[C@H](O)[C@@H](O)[C@@H](O[C@@H]3[C@H](O)[C@@H](O)[C@@H](O[C@@H]4[C@H](O)[C@@H](O)[C@@H](O[C@@H]5[C@H](O)[C@@H](O)[C@@H](O[C@@H]6[C@H](O)[C@@H](O)[C@@H](O[C@@H]7[C@H](O)[C@@H](O)C(O)O[C@@H]7C(=O)O)O[C@@H]6C(=O)O)O[C@@H]5C(=O)O)O[C@@H]4C(=O)O)O[C@@H]3C(=O)O)O[C@@H]2C(=O)O)[C@H](O)[C@@H](O)[C@H]1O (some centres unmarked) [GalA_DP7],Kd,[1],1.28 ± 0.1 mM
same,Kd,[2],103 ± 15 µM
